Test: physchem
Details: 37 °C
Description: However, there has been no report yet for an intraoral quickly disintegrating tablet containing a slightly soluble pharmaceutical agent having an improved solubility as such and for a method of manufacturing the tablet. One of the reasons therefor is that it is difficult for satisfying all of the requirements for improving the solubility of the slightly soluble pharmaceutical agent, for a quick disintegration in the mouth and for ensuring a good touch on the tongue upon disintegration. Many of the pharmaceutical ingredients acting as a cyclic GMP phosphodiesterase inhibitor are the compounds having a relatively low solubility and are within a category of the slightly soluble pharmaceutical agents.

## COc1ccc(CNc2nnc(N3CCC(O)CC3)c3ccc(C#N)cc23)cc1Cl.Cl [formula (IX), 4-(3-chloro-4-methoxybenzyl)amino-6-cyano-1-(4-hydroxypiperidino)phthalazine hydrochloride]
pH 1.2, simulated gastric fluid
  solubility: 130 µg/mL
pH 6.8, aqueous buffer
  solubility: 6.3 µg/mL
